{"source": "patent US20250376711A1", "about": "“COMPOUND-DIAGNOSTIC MARKER FOR UTERINE BODY CANCER, METHOD FOR DETECTING ENZYMATIC ACTIVITY, METHOD FOR DIAGNOSIS OF UTERINE BODY CANCER, KIT COMPRISING THE COMPOUND, USES OF THE COMPOUND AND METHOD FOR THE TREATMENT OF UTERINE BODY CANCER” (URTESTE S.A., priority 2022, published 2025)", "format_in_all_cases": "biochemical, human", "key": {"[1]": {"tested_on": "enzymatic (proteolytic) activity in urine from subjects diagnosed with uterine body cancer", "assay": "Hydrolysis of the chromogenic substrate in urine from subjects with uterine body cancer (absorbance at 405 nm)", "design": "Results of absorbance analysis (rate of hydrolysis of the substrate): unit not given here", "details": "for Results of absorbance analysis (rate of hydrolysis of the substrate): 405 nm, 37° C., 60 minutes, Tris-HCl pH 8.0, triplicate", "protocol": "(§1) The activity of the novel compounds according to the invention was studied in a group of 20 subjects diagnosed with uterine body cancer using the representative compound according to the invention. […] The remaining compounds according to the invention are characterized by the analogous mechanism of action. For this purpose, the representative compound according to the invention, ABZ^1-Pro^2-Arg^3-Thr^4-Ile^5-ANB^6-NH2, was dissolved in dimethyl sulfoxide (at a concentration of 0.5 mg/mL) and then 50 μL of the solution was mixed with 120 μL of a buffer (200 mM Tris-HCl, pH 8.0) and 80 μL of urine from a subject suffering from uterine body cancer. The measurement was performed on a 96-well plate designed for measuring absorbance and each sample was analysed in triplicate at the temperature of 37° C. The duration of the measurement was 60 minutes. During the measurement, the wavelength characteristic for the chromophore (ANB-NH2) being released was monitored at the wavelength 405 nm (range 380-430 nm).\nThe observed magnitude of increase in absorbance in time is different for each of the examined samples. […] Such a result may be due to the difference in the activity as well as the amount of enzymes responsible for the enzymatic cleavage (proteolysis). […] The result indicates the […] of proteolytic enzymes specific/characteristic of uterine body cancer."}, "[2]": {"tested_on": "enzymatic (proteolytic) activity in urine from healthy subjects", "assay": "Hydrolysis of the chromogenic substrate in urine from healthy subjects (absorbance at 405 nm)", "details": "for Results of absorbance analysis (rate of hydrolysis of the substrate): 405 nm, 37° C., 60 minutes, Tris-HCl pH 8.0, triplicate"}, "[3]": {"tested_on": "enzymatic activity in urine from patients with kidney cancer", "assay": "Selectivity of the cleavage: urine, kidney cancer", "details": "samples from patients with kidney cancer, mixture of 20 samples", "from_the_text": "(§2) Arabic numerals indicate the numbers of given cancer types. The samples tested for each type of cancer were derived from 20 different patients for each of the tested cancers. The results are mean values for given cancer types.\nas §1\n(§3) Furthermore, the dependence of the cleavage selectivity of the substrate, i.e. the compound according to the invention, on the cancer being examined, was studied. […]"}, "[4]": {"tested_on": "enzymatic activity in urine from patients with lung cancer", "assay": "Selectivity of the cleavage: urine, lung cancer", "details": "samples from patients with lung cancer, mixture of 20 samples", "from_the_text": "as §2, §1, §3"}, "[5]": {"tested_on": "enzymatic activity in urine from patients with prostate cancer", "assay": "Selectivity of the cleavage: urine, prostate cancer", "details": "samples from patients with prostate cancer, mixture of 20 samples", "from_the_text": "as §2, §1, §3"}, "[6]": {"tested_on": "enzymatic activity in urine from patients with stomach cancer", "assay": "Selectivity of the cleavage: urine, stomach cancer", "details": "samples from patients with stomach cancer, mixture of 20 samples", "from_the_text": "as §2, §1, §3"}, "[7]": {"tested_on": "enzymatic activity in urine from patients with pancreas cancer", "assay": "Selectivity of the cleavage: urine, pancreas cancer", "details": "samples from patients with pancreas cancer, mixture of 20 samples", "from_the_text": "as §2, §1, §3"}, "[8]": {"tested_on": "enzymatic activity in urine from patients with ovary cancer", "assay": "Selectivity of the cleavage: urine, ovary cancer", "details": "samples from patients with ovary cancer, mixture of 20 samples", "from_the_text": "as §2, §1, §3"}, "[9]": {"tested_on": "enzymatic activity in urine from patients with liver cancer", "assay": "Selectivity of the cleavage: urine, liver cancer", "details": "samples from patients with liver cancer, mixture of 20 samples", "from_the_text": "as §2, §1, §3"}, "[10]": {"tested_on": "enzymatic activity in samples from patients with bladder cancer", "assay": "Selectivity of the cleavage: urine, bladder cancer", "details": "mixture of 20 samples", "from_the_text": "as §2, §1, §3"}, "[11]": {"tested_on": "enzymatic activity in urine from a person diagnosed with uterine body cancer", "assay": "RP HPLC analysis of substrate cleavage in urine from a person with uterine body cancer", "details": "randomly selected urine from a person diagnosed with uterine body cancer"}, "[12]": {"tested_on": "enzyme(s) in the studied material (urine)", "assay": "Dependence of the hydrolysis level of the substrate on pH", "details": "FIG. 4", "protocol": "Furthermore, measurements concerning the dependence of the proteolytic activity of the representative compound according to the invention on the reaction pH were performed."}}, "note": "Several values for one entry are separate records, joined by “and”; a condition that tells them apart may be missing. Equal values may be shown once. Starred links: 1 amine or outer side, 2 acyl side, 3 side chain; linkers in the order of their positions; H or OH if unused. Non-standard residues stand in square brackets, D forms with d. No end group written: not given here. Benzoyl(5-NH,2-NO2) = O=C(c1cc(N[*:1])ccc1[N+](=O)[O-])[*:2]; 2Abz = Nc1ccccc1C(=O)O"}
{"substance": "ABZ-Pro-Arg-Thr-Ile-ANB-NH2 ([2Abz]PRTI-{Benzoyl(5-NH,2-NO2)-NH2})", "values": [{"measurement": "colour intensity of the solution (absorbance) over time", "setting": "[1]; all urine samples from persons diagnosed with uterine body cancer (T1-T20)", "result": "increased with time"}, {"measurement": "Results of absorbance analysis (rate of hydrolysis of the substrate)", "setting": "[1]; urine sample T1, uterine body cancer", "result": "0.0066 and 0.006 and 0.0065"}, {"measurement": "Results of absorbance analysis (rate of hydrolysis of the substrate)", "setting": "[1]; urine sample T2, uterine body cancer", "result": "0.052 and 0.042 and 0.051"}, {"measurement": "Results of absorbance analysis (rate of hydrolysis of the substrate)", "setting": "[1]; urine sample T3, uterine body cancer", "result": "0.0087 and 0.0088 and 0.0086"}, {"measurement": "Results of absorbance analysis (rate of hydrolysis of the substrate)", "setting": "[1]; urine sample T4, uterine body cancer", "result": "0.0069 and 0.0051 and 0.0067"}, {"measurement": "Results of absorbance analysis (rate of hydrolysis of the substrate)", "setting": "[1]; urine sample T5, uterine body cancer", "result": "0.044 and 0.038 and 0.042"}, {"measurement": "Results of absorbance analysis (rate of hydrolysis of the substrate)", "setting": "[1]; urine sample T6, uterine body cancer", "result": "0.037 and 0.022 and 0.028"}, {"measurement": "Results of absorbance analysis (rate of hydrolysis of the substrate)", "setting": "[1]; urine sample T8, uterine body cancer", "result": "0.014 and 0.022 and 0.015"}, {"measurement": "Results of absorbance analysis (rate of hydrolysis of the substrate)", "setting": "[1]; urine sample T9, uterine body cancer", "result": "0.0088 and 0.0101 and 0.0092"}, {"measurement": "Results of absorbance analysis (rate of hydrolysis of the substrate)", "setting": "[1]; urine sample T10, uterine body cancer", "result": "0.009 and 0.0093 and 0.0085"}, {"measurement": "Results of absorbance analysis (rate of hydrolysis of the substrate)", "setting": "[1]; urine sample T11, uterine body cancer", "result": "0.0123 and 0.0112 and 0.0145"}, {"measurement": "Results of absorbance analysis (rate of hydrolysis of the substrate)", "setting": "[1]; urine sample T12, uterine body cancer", "result": "0.0216 and 0.021 and 0.0199"}, {"measurement": "Results of absorbance analysis (rate of hydrolysis of the substrate)", "setting": "[1]; urine sample T13, uterine body cancer", "result": "0.0045 and 0.0052 and 0.0048"}, {"measurement": "Results of absorbance analysis (rate of hydrolysis of the substrate)", "setting": "[1]; urine sample T14, uterine body cancer", "result": "0.005 and 0.0061 and 0.0058"}, {"measurement": "Results of absorbance analysis (rate of hydrolysis of the substrate)", "setting": "[1]; urine sample T15, uterine body cancer", "result": "0.0017 and 0.0015 and 0.0021"}, {"measurement": "Results of absorbance analysis (rate of hydrolysis of the substrate)", "setting": "[1]; urine sample T16, uterine body cancer", "result": "0.0079 and 0.0084 and 0.0072"}, {"measurement": "Results of absorbance analysis (rate of hydrolysis of the substrate)", "setting": "[1]; urine sample T18, uterine body cancer", "result": "0.0073 and 0.0068 and 0.0075"}, {"measurement": "Results of absorbance analysis (rate of hydrolysis of the substrate)", "setting": "[1]; urine sample T19, uterine body cancer", "result": "0.055 and 0.051 and 0.048"}, {"measurement": "Results of absorbance analysis (rate of hydrolysis of the substrate)", "setting": "[1]; urine sample T20, uterine body cancer", "result": "0.0077 and 0.0075 and 0.0081"}, {"measurement": "increase in absorbance within the diagnostic range", "setting": "[2]; 20 urine samples from healthy subjects", "result": "no increase in absorbance"}, {"measurement": "Results of absorbance analysis (rate of hydrolysis of the substrate)", "setting": "[2]; urine sample 21, healthy subject", "result": 0.000000}, {"measurement": "Results of absorbance analysis (rate of hydrolysis of the substrate)", "setting": "[2]; urine sample 22, healthy subject", "result": 0.000000}, {"measurement": "Results of absorbance analysis (rate of hydrolysis of the substrate)", "setting": "[2]; urine sample 23, healthy subject", "result": 0.000000}, {"measurement": "Results of absorbance analysis (rate of hydrolysis of the substrate)", "setting": "[2]; urine sample 24, healthy subject", "result": 0.000000}, {"measurement": "Results of absorbance analysis (rate of hydrolysis of the substrate)", "setting": "[2]; urine sample 25, healthy subject", "result": 0.000000}, {"measurement": "Results of absorbance analysis (rate of hydrolysis of the substrate)", "setting": "[2]; urine sample 26, healthy subject", "result": 0.000000}, {"measurement": "Results of absorbance analysis (rate of hydrolysis of the substrate)", "setting": "[2]; urine sample 27, healthy subject", "result": 0.000000}, {"measurement": "Results of absorbance analysis (rate of hydrolysis of the substrate)", "setting": "[2]; urine sample 28, healthy subject", "result": 0.000000}, {"measurement": "Results of absorbance analysis (rate of hydrolysis of the substrate)", "setting": "[2]; urine sample 29, healthy subject", "result": 0.000000}, {"measurement": "Results of absorbance analysis (rate of hydrolysis of the substrate)", "setting": "[2]; urine sample 30, healthy subject", "result": 0.000000}, {"measurement": "Results of absorbance analysis (rate of hydrolysis of the substrate)", "setting": "[2]; urine sample 31, healthy subject", "result": 0.000000}, {"measurement": "Results of absorbance analysis (rate of hydrolysis of the substrate)", "setting": "[2]; urine sample 32, healthy subject", "result": 0.000000}, {"measurement": "Results of absorbance analysis (rate of hydrolysis of the substrate)", "setting": "[2]; urine sample 33, healthy subject", "result": 0.000000}, {"measurement": "Results of absorbance analysis (rate of hydrolysis of the substrate)", "setting": "[2]; urine sample 34, healthy subject", "result": 0.000000}, {"measurement": "Results of absorbance analysis (rate of hydrolysis of the substrate)", "setting": "[2]; urine sample 35, healthy subject", "result": 0.000000}, {"measurement": "Results of absorbance analysis (rate of hydrolysis of the substrate)", "setting": "[2]; urine sample 36, healthy subject", "result": 0.000000}, {"measurement": "Results of absorbance analysis (rate of hydrolysis of the substrate)", "setting": "[2]; urine sample 37, healthy subject", "result": 0.000000}, {"measurement": "Results of absorbance analysis (rate of hydrolysis of the substrate)", "setting": "[2]; urine sample 38, healthy subject", "result": 0.000000}, {"measurement": "Results of absorbance analysis (rate of hydrolysis of the substrate)", "setting": "[2]; urine sample 39, healthy subject", "result": 0.000000}, {"measurement": "Results of absorbance analysis (rate of hydrolysis of the substrate)", "setting": "[2]; urine sample 40, healthy subject", "result": 0.000000}, {"measurement": "cleavage of the substrate / increase in absorbance", "setting": "[3]", "result": "is not subject to cleavage"}, {"measurement": "cleavage of the substrate / increase in absorbance", "setting": "[4]", "result": "is not subject to cleavage"}, {"measurement": "cleavage of the substrate / increase in absorbance", "setting": "[5]", "result": "is not subject to cleavage"}, {"measurement": "cleavage of the substrate / increase in absorbance", "setting": "[6]", "result": "is not subject to cleavage"}, {"measurement": "cleavage of the substrate / increase in absorbance", "setting": "[7]", "result": "is not subject to cleavage"}, {"measurement": "cleavage of the substrate / increase in absorbance", "setting": "[8]", "result": "is not subject to cleavage"}, {"measurement": "cleavage of the substrate / increase in absorbance", "setting": "[9]", "result": "is not subject to cleavage"}, {"measurement": "cleavage of the substrate / increase in absorbance", "setting": "[10]", "result": "is not subject to cleavage"}, {"measurement": "cleavage products of the substrate (RP HPLC)", "setting": "[11]", "result": "cleaves into the peptide fragment ABZ-Pro-Arg-Thr-Ile-OH and the chromophore group of the compound (ANB-NH2)"}, {"measurement": "dependence of the hydrolysis of the substrate on the reaction pH", "setting": "[12]", "result": "maximum activity at alkaline pH"}]}
